Common to all, as to type: biochemical
Experiment [1] concerns the target T1, matriptase (Homo sapiens, UniProt Q9Y5Y6).
T1 construct: purchased R&D Systems 3946-SE-010
T1 sequence (Q9Y5Y6 615-855 limits assumed): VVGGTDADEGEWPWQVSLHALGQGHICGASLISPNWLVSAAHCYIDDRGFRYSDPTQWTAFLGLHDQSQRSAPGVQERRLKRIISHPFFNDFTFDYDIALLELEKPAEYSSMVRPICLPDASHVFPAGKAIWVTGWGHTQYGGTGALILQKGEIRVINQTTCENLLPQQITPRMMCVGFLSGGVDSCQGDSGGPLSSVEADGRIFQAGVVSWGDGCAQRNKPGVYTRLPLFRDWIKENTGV
The experiment in a line: Fluorescent kinetic enzyme assay of matriptase activity (Boc-QAR-AMC). To be noted: Table 2; read-out: Matriptase (IC50 nM).
Protocol: After thirty minutes of incubation at room temperature, Boc-QLR-AMC substrate was added (HGFA assay) or Boc-QAR-AMC substrate (matriptase, and hepsin assays). […] From a plot of the mean reaction velocity versus the inhibitor concentration, a non-linear four parameter curve fit was performed using GraphPad Prism (GraphPad Software, San Diego, CA) to determine inhibitor IC50s. The IC50 values were determined from the average of three or more separate experimental determinations. Apparent Ki values were calculated using the Cheng and Prusoff equation (Ki=IC50/(1+[S]/Km).
Inhibitors were pre-incubated with protease followed by the addition of the substrate. Inhibition of substrate proteolysis derived fluorescence was monitored kinetically over a period of one hour.

Experiment [2] concerns the target T2, activated hepsin (Homo sapiens, UniProt P05981).
T2 construct: purchased R&D Systems 4776-SE-010
The experiment can be described thus: Fluorescent kinetic enzyme assay of hepsin activity (Boc-QAR-AMC). To be noted: Table 2; read-out: Hepsin (IC50 nM).

Experiment [3] deals with recombinant thrombin (Homo sapiens, UniProt P00734). The experiment can be described thus: Chromogenic kinetic enzyme assay of thrombin (S2238). To be noted: Table 2; chromogenic assay; read-out: Thrombin* (IC50 nM).
In experiment [4] the target is Factor Xa (Homo sapiens, UniProt P00742). The experiment can be described thus: Chromogenic kinetic enzyme assay of Factor Xa (S2222). To be noted: Table 2; chromogenic assay; read-out: Factor Xa* (IC50 nM).
Chain of Factor Xa (P00742 235-488 limits assumed): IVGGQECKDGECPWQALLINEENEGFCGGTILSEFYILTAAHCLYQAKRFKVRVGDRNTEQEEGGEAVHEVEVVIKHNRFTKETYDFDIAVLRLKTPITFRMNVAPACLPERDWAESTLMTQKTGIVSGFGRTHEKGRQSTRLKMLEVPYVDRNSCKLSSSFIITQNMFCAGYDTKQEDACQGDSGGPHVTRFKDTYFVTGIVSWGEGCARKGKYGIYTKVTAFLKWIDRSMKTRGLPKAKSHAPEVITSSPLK
Chain of Factor Xa (P00742 41-179 partner limits assumed): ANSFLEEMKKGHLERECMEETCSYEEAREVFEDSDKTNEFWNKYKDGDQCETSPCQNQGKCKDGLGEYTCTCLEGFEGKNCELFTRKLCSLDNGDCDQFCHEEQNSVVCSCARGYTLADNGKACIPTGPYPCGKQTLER
The target in experiment [5] is T3, KLK5 (Homo sapiens, UniProt Q9Y337).
T3 construct: purchased R&D Systems 1108-SE-010
T3 sequence (Q9Y337 23-293): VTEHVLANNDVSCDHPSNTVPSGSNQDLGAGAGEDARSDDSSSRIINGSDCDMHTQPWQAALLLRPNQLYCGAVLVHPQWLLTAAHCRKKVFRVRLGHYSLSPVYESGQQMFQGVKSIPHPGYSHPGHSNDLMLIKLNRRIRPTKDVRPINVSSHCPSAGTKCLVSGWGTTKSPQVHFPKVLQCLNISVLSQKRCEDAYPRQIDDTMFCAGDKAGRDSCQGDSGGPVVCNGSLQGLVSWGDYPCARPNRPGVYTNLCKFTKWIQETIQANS
The experiment in a line: Fluorescent kinetic enzyme inhibitor assay of KLK5 (Boc-VPR-AMC). To be noted: Table 4; 7.5 nM KLK5, 100 μM substrate. As for the experimental part:
Fluorescent Kinetic Enzyme Inhibitor Assay of KLK5: Inhibitors (11-pt serial dilutions, 0-20 μM final concentration in reaction) were serially diluted in DMSO (2% DMSO final concentration) and then mixed with KLK5 (#1108-SE-010, R&D Systems, Minneapolis, Minnesota) in black 384 well plates (Corning #3575. Corning, NY). The final assay concentration for KLK5 is 7.5 nM in TNC buffer (25 mM Tris, 150 mM NaCl, 5 mM CaCl2), 0.01% Triton X-100, pH 8). After thirty minutes incubation at room temperature, Boc-VPR-AMC substrate was added. The final substrate concentrations for assay is 100 μM. Changes in fluorescence (excitation at 380 nm and emission at 460 nm) were measured at room temperature over time in a Biotek Synergy 2 plate reader (Winnoski, VT). Using GraphPad Prism version 6.04 software program, (GraphPad Software, San Diego, CA, graphpad.com), a four parameter curve fit was used to determine the inhibitor IC50s from a plot of the mean reaction velocity versus the inhibitor concentration. The IC50 values represent the average of three or more separate experimental determinations.

T2 sequence (P05981 163-417 limits assumed): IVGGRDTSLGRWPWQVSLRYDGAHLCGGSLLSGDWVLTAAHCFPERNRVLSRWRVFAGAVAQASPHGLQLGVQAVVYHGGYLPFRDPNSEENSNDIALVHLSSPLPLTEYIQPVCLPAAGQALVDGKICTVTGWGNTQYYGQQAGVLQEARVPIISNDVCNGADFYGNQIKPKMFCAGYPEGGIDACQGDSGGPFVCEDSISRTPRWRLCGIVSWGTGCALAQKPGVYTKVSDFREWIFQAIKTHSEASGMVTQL
T2 sequence (P05981 1-162 partner limits assumed): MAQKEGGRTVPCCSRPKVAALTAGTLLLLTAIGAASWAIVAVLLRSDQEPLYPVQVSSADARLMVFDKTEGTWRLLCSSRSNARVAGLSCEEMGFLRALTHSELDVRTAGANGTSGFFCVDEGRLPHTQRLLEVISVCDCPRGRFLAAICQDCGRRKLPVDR

With `CC(=O)N[C@H]1CC(=O)NCCCC[C@@H](C(=O)N[C@@H](CCCNC(=N)N)C(=O)c2nc3ccccc3s2)NC(=O)[C@H](Cc2ccccc2)NC1=O` [VD3112, (3S,6S,14S)-6-acetamido-N—((S)-1-(benzo[d]thiazol-2-yl)-5-guanidino-1-oxopentan-2-yl)-3-benzyl-2,5,8-trioxo-1,4,9-triazacyclotetradecane-14-carboxamide], the IC50 was determined as 3.4 nM in experiment [1]; 17.4 nM in experiment [2]; 1090 nM in experiment [3]; 1530 nM in experiment [4]; 2530 nM in experiment [5].

(Values after US12590123B2, “Compounds and methods for treating cancer, viral infections, and allergic conditions” (Washington University, priority 2019, dated 2026).)
